Legend:
[1] = target: RORγ LBD (Homo sapiens (Human), UniProt P51449); test: ROR gamma radio-ligand binding assay (3H 25-Hydroxycholesterol competitive displacement, dextran charcoal method); conditions: for inhibition at 1 µM: 1 μM compound; for inhibition at 10 µM: 10 μM compound; for IC50: in range
Experimental: Gene corresponding to the ligand binding domain of RORγ (247-497 amino acids) was sub-cloned into pGEX4T1 vector. Transformants of E. coli BL21 (DE3) containing pGEX4T1-RORγ (247-497) were grown to an OD of 0.8 at 37° C. and induced with 0.5 mM isopropyl-β-D-thiogalactopyranoside (IPTG) for 18 hours at 18° C. Cells were harvested and resuspended in 20 mM Tris-HCl (pH 8.5), 0.3 M NaCl, 10% Glycerol, 2 mM β-Me (β-Mercaptoethanol), 2 mM CHAPS, protease inhibitors, 0.6 mM PMSF and Lysozyme. Supernatant of lysate was passed through glutathione sepharose 4B affinity beads (GE health care) pre-equilibrated with 20 mM Tris-HCl (pH 8.5), 0.3 M NaCl, 10% Glycerol, 2 mM β-Me. RORγ was eluted using a gradient of reduced glutathione (3-20 mM). Fractions containing RORγ protein were pooled, concentrated and passed through Superdex 75 gel filtration (GE health care) column equilibrated with 20 mM Na-phosphate pH 8.0, 0.2 M NaCl, 10% glycerol. The peak fractions from gel filtration column were pooled and stored at −80° C. for Binding assay.
ROR gamma radioligand binding was performed using ^3H 25-Hydroxycholesterol in a competitive displacement assay using dextran charcoal method. Using 5 nM ^3H 25-Hydroxycholesterol with 300 ng RORγ LBD (in house expressed in E. coli) along with the compound were incubated in the binding buffer (50 mM HEPES, pH 7.5, 150 mM NaCl, 0.01% BSA and 5 mM MgCl2) for 30 min at room temperature. Then dextran-charcoal mixture (0.5% charcoal: 0.05% dextran) was used for separation and the supernatant was read on the Perkin Elmer Trilux Microbeta counter. Dose response curves were generated for 10 compound concentrations using GraphPad Prism software Version 5 (San Diego, Calif., USA) using non-linear regression curve fit for sigmoidal dose response (variable slope).

[2] = target: ROR gamma ligand binding domain (Homo sapiens (Human), UniProt P51449); test: ROR gamma luciferase reporter assay (GAL4-ROR gamma LBD, HEK293 cells); type: cell-based; conditions: 48 hours treatment, read-out: RORγ luciferase Reporter assay: IC50 (nM) (in range)
Experimental: The Ligand Binding Domain (LBD) of ROR gamma was cloned into pFN26A (BIND) hRluc-neo Flexi vector (Promega) which expresses a fusion protein comprised of a DNA binding domain of the yeast GAL4 gene, a linker segment and ROR gamma ligand binding domain. For the reporter assay 0.02×10^6 HEK293 cells were seeded per well in a 96 well plate in complete media and incubated overnight in an incubator with 5% CO2 at 37° C. before transfection. Cells were then co-transfected with pFN26A hRluc-neo Flexi vector containing the LBD of ROR gamma and pGL4.35 [luc2P/9XGAL4 UAS/Hygro] Vector (Promega) in low serum media. Post transfection and recovery, cells were treated with the test compounds for 48 hours. The assay was terminated using the Bright-Glo Luciferase assay system from Promega and the Luminescence was measured using a luminescence reader. The luminescence values were used to calculate the potency of the compounds.

ROR gamma ligand binding domain, sequence (P51449 269-508): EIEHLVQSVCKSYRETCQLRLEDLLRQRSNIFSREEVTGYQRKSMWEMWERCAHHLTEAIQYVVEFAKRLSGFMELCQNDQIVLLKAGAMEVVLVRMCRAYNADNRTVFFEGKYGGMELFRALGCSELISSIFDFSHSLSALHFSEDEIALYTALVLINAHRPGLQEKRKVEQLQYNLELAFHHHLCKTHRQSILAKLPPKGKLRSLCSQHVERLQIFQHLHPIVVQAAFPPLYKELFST
RORγ LBD, sequence (P51449 268-518): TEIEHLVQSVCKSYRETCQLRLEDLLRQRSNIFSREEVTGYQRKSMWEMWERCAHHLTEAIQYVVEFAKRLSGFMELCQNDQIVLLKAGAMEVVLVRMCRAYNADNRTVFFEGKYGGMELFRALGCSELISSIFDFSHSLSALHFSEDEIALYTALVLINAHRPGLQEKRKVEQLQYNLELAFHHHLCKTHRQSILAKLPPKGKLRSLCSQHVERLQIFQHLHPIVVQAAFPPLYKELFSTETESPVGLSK

## CCc1nc(C)cc(C2(C)CCc3nc(NC(=O)Cc4ccc(S(=O)(=O)CC)cc4)ccc3C2=O)n1 (stereo not drawn) [compound 132, N-(6-(2-ethyl-6-methylpyrimidin-4-yl)-6-methyl-5-oxo-5,6,7,8-tetrahydroquinolin-2-yl)-2-(4-(ethylsulfonyl)phenyl)acetamide]
[1]
  inhibition at 1 µM: 99%
  inhibition at 10 µM: 103%
  IC50: < 150 nM

## CCS(=O)(=O)c1ccc(CC(=O)Nc2ccc3c(n2)CCC(C)(c2cnc(C(C)C)cn2)C3=O)cc1 (stereo not drawn) [Compound 60, 2-(4-(ethylsulfonyl)phenyl)-N-(6-(5-isopropylpyrazin-2-yl)-6-methyl-5-oxo-5,6,7,8-tetrahydroquinolin-2-yl)acetamide]
[2]
  IC50: 100 to 500 nM

## CCS(=O)(=O)c1ccc(CC(=O)Nc2cc(C)c3c(n2)CCC(C)(c2ccc4c(c2)OCO4)C3=O)cc1 (stereo not drawn) [Compound 42, N-(6-(benzo[d][1,3]dioxol-5-yl)-4,6-dimethyl-5-oxo-5,6,7,8-tetrahydroquinolin-2-yl)-2-(4-(ethylsulfonyl)phenyl)acetamide]
[1]
  inhibition at 1 µM: 94%
  inhibition at 10 µM: 92%
  IC50: < 150 nM

## CCc1cc(C2(C)CCc3nc(NC(=O)Cc4ccc(S(=O)(=O)CC)cc4)ccc3C2=O)nc(C)n1 (stereo not drawn) [Compound-131]
[1]
  inhibition at 1 µM: 51%
  inhibition at 10 µM: 42%

## CCS(=O)(=O)c1ccc(CC(=O)Nc2cc(C)c3c(n2)CCC(C)(c2ccc(OC)[n+]([O-])n2)C3=O)cc1 (stereo not drawn) [Compound 94, 3-(2-(2-(4-(ethylsulfonyl)phenyl)acetamido)-4,6-dimethyl-5-oxo-5,6,7,8-tetrahydroquinolin-6-yl)-6-methoxypyridazine 1-oxide]
[2]
  IC50: > 500 nM

## CCS(=O)(=O)c1ccc(CC(=O)Nc2ccc3c(n2)CC(C)C(c2cc(C)nc(C)n2)C3=O)cc1 (stereo not drawn) [Compound 82, N-(6-(2,6-dimethylpyrimidin-4-yl)-7-methyl-5-oxo-5,6,7,8-tetrahydroquinolin-2-yl)-2-(4-(ethylsulfonyl)phenyl)acetamide]
[2]
  IC50: > 500 nM

## CCS(=O)(=O)c1ccc(CC(=O)Nc2cc(C)c3c(n2)CCC(C)(c2ccc4nccn4n2)C3=O)cc1 (stereo not drawn) [Compound 77, 2-(4-(ethylsulfonyl)phenyl)-N-(6-(imidazo[1,2-b]pyridazin-6-yl)-4,6-dimethyl-5-oxo-5,6,7,8-tetrahydroquinolin-2-yl)acetamide]
[2]
  IC50: 100 to 500 nM

## CCS(=O)(=O)c1ccc(CC(=O)Nc2cc(C)c3c(n2)CCC(C)(c2cc(C)nc(OC)n2)C3=O)cc1 (stereo not drawn) [Compound-135, 2-(4-(ethylsulfonyl)phenyl)-N-(6-(2-methoxy-6-methylpyrimidin-4-yl)-4,6-dimethyl-5-oxo-5,6,7,8-tetrahydroquinolin-2-yl)acetamide]
[1]
  inhibition at 1 µM: 90%
  inhibition at 10 µM: 104%
  IC50: < 150 nM

## CCS(=O)(=O)c1ccc(CNC(=O)c2cc3c(cn2)C(=O)C(C)(c2cc(C)nc(C)n2)CC3)cc1 (stereo not drawn) [Compound-134, 7-(2,6-dimethylpyrimidin-4-yl)-N-(4-(ethylsulfonyl)benzyl)-7-methyl-8-oxo-5,6,7,8-tetrahydroisoquinoline-3-carboxamide]
[2]
  IC50: 100 to 500 nM

## CCS(=O)(=O)c1ccc(CC(=O)Nc2ccc3c(n2)CC(C)(C)C(c2ncccc2O)C3=O)cc1 (stereo not drawn) [Compound 87, 2-(4-(ethylsulfonyl)phenyl)-N-(6-(3-hydroxypyridin-2-yl)-7,7-dimethyl-5-oxo-5,6,7,8-tetrahydroquinolin-2-yl)acetamide]
[1]
  inhibition at 1 µM: 82%
  inhibition at 10 µM: 99%
  IC50: 150 to 300 nM

## Cc1cn2ccnc(C3(C)CCc4nc(NC(=O)Cc5ccc(S(C)(=O)=O)cc5)ccc4C3=O)c2n1 (stereo not drawn) [Compound 59, N-(6-methyl-6-(2-methylimidazo[1,2-a]pyrazin-8-yl)-5-oxo-5,6,7,8-tetrahydroquinolin-2-yl)-2-(4-(methylsulfonyl)phenyl)acetamide]
[2]
  IC50: > 500 nM

## CCS(=O)(=O)c1ccc(CC(=O)Nc2ccc3c(n2)CCC(C)(c2nc(C)cn4ccnc24)C3=O)cc1 (single isomer, unassigned) [compound 118, 2-(4-(ethylsulfonyl)phenyl)-N-(6-methyl-6-(6-methylimidazo[1,2-a]pyrazin-8-yl)-5-oxo-5,6,7,8-tetrahydroquinolin-2-yl)acetamide]
[2]
  IC50: < 100 nM

## CCS(=O)(=O)c1ccc(CC(=O)Nc2cc(C)c3c(n2)CCC(C)(c2nccn4cc(C)nc24)C3=O)cc1 (stereo not drawn) [Compound 52, N-(4,6-dimethyl-6-(2-methylimidazo[1,2-a]pyrazin-8-yl)-5-oxo-5,6,7,8-tetrahydroquinolin-2-yl)-2-(4-(ethylsulfonyl)phenyl)acetamide]
[2]
  IC50: < 100 nM

## CCS(=O)(=O)c1ccc(CC(=O)Nc2cc(C)c3c(n2)CCC(C)(c2c(C)ccnc2O)C3=O)cc1 (stereo not drawn) [Compound 86, 2-(4-(ethylsulfonyl)phenyl)-N-(6-(2-hydroxy-4-methylpyridin-3-yl)-4,6-dimethyl-5-oxo-5,6,7,8-tetrahydroquinolin-2-yl)acetamide]
[1]
  inhibition at 1 µM: 72%
  inhibition at 10 µM: 100%
  IC50: < 150 nM

## CCS(=O)(=O)c1ccc(CC(=O)Nc2cc(C)c3c(n2)CCC(C)(c2ncc(OC)cn2)C3=O)cc1 (stereo not drawn) [Compound 61, 2-(4-(ethylsulfonyl)phenyl)-N-(6-(5-methoxypyrimidin-2-yl)-4,6-dimethyl-5-oxo-5,6,7,8-tetrahydroquinolin-2-yl)acetamide]
[1]
  inhibition at 1 µM: 90%
  inhibition at 10 µM: 74%
  IC50: < 150 nM

## CCS(=O)(=O)c1ccc(CC(=O)Nc2cc(C)c3c(n2)CCC(C)(c2cccnc2O)C3=O)cc1 (stereo not drawn) [Compound 84, 2-(4-(ethylsulfonyl)phenyl)-N-(6-(2-hydroxypyridin-3-yl)-4,6-dimethyl-5-oxo-5,6,7,8-tetrahydroquinolin-2-yl)acetamide]
[1]
  inhibition at 1 µM: 82%
  inhibition at 10 µM: 100%
  IC50: 150 to 300 nM

## CCS(=O)(=O)c1ccc(CC(=O)Nc2cc3c(cn2)C(=O)C(C)(c2cc(C)nc(C)n2)CC3)cc1 (stereo not drawn) [compound 128, N-(7-(2,6-dimethylpyrimidin-4-yl)-7-methyl-8-oxo-5,6,7,8-tetrahydroisoquinolin-3-yl)-2-(4-(ethylsulfonyl)phenyl)acetamide]
[1]
  inhibition at 1 µM: 79%
  inhibition at 10 µM: 110%
  IC50: < 150 nM

## CCS(=O)(=O)c1ccc(CC(=O)Nc2cc(C)c3c(n2)CCC(C)(c2ncccc2O)C3=O)cc1 (stereo not drawn) [Compound 85, 2-(4-(ethylsulfonyl)phenyl)-N-(6-(3-hydroxypyridin-2-yl)-4,6-dimethyl-5-oxo-5,6,7,8-tetrahydroquinolin-2-yl)acetamide]
[1]
  inhibition at 1 µM: 62%
  inhibition at 10 µM: 95%
  IC50: > 300 nM

## CCS(=O)(=O)c1ccc(CC(=O)Nc2ccc3c(n2)CCC(C)(n2nc(C)cc2C)C3=O)cc1 (stereo not drawn) [Compound 46, N-(6-(3,5-dimethyl-1H-pyrazol-1-yl)-6-methyl-5-oxo-5,6,7,8-tetrahydroquinolin-2-yl)-2-(4-(ethylsulfonyl)phenyl)acetamide]
[1]
  inhibition at 1 µM: 56%
  inhibition at 10 µM: 92%
  IC50: > 300 nM

## CCS(=O)(=O)c1ccc(CC(=O)Nc2cc(C)c3c(n2)CCC(C)(c2ccc4c(c2)ncn4C)C3=O)cc1 (stereo not drawn) [Compound 43, N-(4,6-dimethyl-6-(1-methyl-1H-benzo[d]imidazol-5-yl)-5-oxo-5,6,7,8-tetrahydroquinolin-2-yl)-2-(4-(ethylsulfonyl)phenyl)acetamide]
[1]
  inhibition at 1 µM: 82%
  IC50: < 150 nM

## CCc1cc(C2(C)CCc3nc(NC(=O)Cc4ccc(S(=O)(=O)CC)cc4)ccc3C2=O)nc(CC)n1 (stereo not drawn) [compound 133, N-(6-(2,6-diethylpyrimidin-4-yl)-6-methyl-5-oxo-5,6,7,8-tetrahydroquinolin-2-yl)-2-(4-(ethylsulfonyl)phenyl)acetamide]
[1]
  inhibition at 1 µM: 96%
  inhibition at 10 µM: 109%
  IC50: < 150 nM

## CCS(=O)(=O)c1ccc(CC(=O)Nc2cc(C)c3c(n2)CCC(C)(n2cccn2)C3=O)cc1 (stereo not drawn) [Compound 47]
[1]
  inhibition at 1 µM: 82%
  inhibition at 10 µM: 98%
  IC50: < 150 nM

## CCS(=O)(=O)c1ccc(CC(=O)Nc2cc(C)c3c(n2)CCC(C)(c2cccc(OC)n2)C3=O)cc1 (stereo not drawn) [Compound 19, 2-(4-(ethylsulfonyl)phenyl)-N-(6-(6-methoxypyridin-2-yl)-4,6-dimethyl-5-oxo-5,6,7,8-tetrahydroquinolin-2-yl)acetamide]
[1]
  inhibition at 1 µM: 98%
  inhibition at 10 µM: 98%
  IC50: 150 to 300 nM
